Test results reported in PubChem BioAssay AID179 (DTP/NCI, 2004).
pEC50, pIC50: −log10 of the molar value. Active and inactive are the calls of the source.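 The calls were made as follows: active = compounds giving half or more protection of infected cells from virus-caused growth loss, again on retest; inactive = the rest.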

Tested on: CEM cells HIV-1 protection, formazan growth assay
Assay: NCI AIDS Antiviral Assay
Settings: for pIC50: measured here: growth of uninfected CEM cells
Summary of the method: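 Human CEM cells, uninfected and HIV-1-infected, exposed to five drug concentrations; growth measured by soluble formazan assay and scored as percent protection from infection, with protecting compounds retested.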

SMILES | pEC50 | pIC50 | outcome
CCCCCCCCO/N=C\c1c2c(O)c3c(O)c(C)c4c(c3c1O)C(=O)C(C)(O/C=C\C(OC)C(C)C(OC(C)=O)C(C)C(O)C(C)C(O)C(C)/C=C\C=C(\C)C(=O)N2)O4 (stereo not drawn) | < 3.70 | 5.41 | 
O=C(CN1CCOCC1)c1ccc2[nH]c(=O)oc2c1 | < 3.70 | 3.81 | 
O=c1nc2[nH]nc(-c3ccccc3)c2n[nH]1 |  |  | inactive
CCOC(=O)NC(O)C(Cl)(Cl)Cl (stereo not drawn) | < 3.70 | < 3.70 | 
C[C@H]1CCC/C=C/[C@@H]2C[C@H](OC(=O)CN(C)C)C[C@H]2[C@H](O)/C=C/C(=O)O1 | < 5.70 | 6.47 | 
CC(C)OC(=O)c1ccc(CCc2cc(O)c(Br)cc2O)cc1 | < 3.70 | 5.08 | 
COc1cc(CC(C(=O)O)C(=O)O)c(OC)cc1CC(C(=O)O)C(=O)O |  |  | inactive
O=c1oc2ccccc2c(O)c1[N+](=O)[O-] | < 3.70 | < 3.70 | 
NC(N)=NCCN1CCCCCCC1 | < 3.70 | < 3.70 | 
C/C=C(\C)C(=O)c1c(OCC)cc(OCC)c2c(CCC)cc(=O)oc12 | < 3.90 | 5.72 | 
C=C1C(=O)C[C@@]23CCC[C@@]12CC(O)C3 (stereo partly drawn) |  |  | inactive
O=S(=O)(c1ccc(O)cc1)c1ccc(O)cc1 | < 3.70 | 3.80 | 
O=C(Nc1nc(Cl)nc(Cl)n1)N1CCOCC1 | < 3.70 | < 3.70 | 
C[Si](C)(C)OC1c2[nH]c3ccccc3c2CN2C(=O)CCC12 (stereo not drawn) | < 3.70 | < 3.70 | 
Cc1cn(CC2=NCCCN2)c(=O)[nH]c1=O | < 3.70 | < 3.70 | 
CC(C)CC(NC(=O)C(COc1ccc([N+](=O)[O-])cc1)Cc1ccccc1)C(=O)Nc1ccccc1 (stereo not drawn) | < 4.00 | 4.82 | 
C1=CC(N(c2ccccc2)C2C=CCCC2)CCC1 (stereo not drawn) |  |  | inactive

SMILES | pEC50 | pIC50 | outcome
COC(=O)[C@@H](O)[C@](O)(CCC(C)C)C(=O)O[C@@H]1C(OC)=C[C@]23CCCN2CCc2cc4c(cc2[C@H]13)OCO4 | < 3.61 | 6.24 | 
CC1=C2CC(C)(C)CC(=O)C2(C)CCC1=O (stereo not drawn) |  |  | inactive
C[N+](C)(C)c1ccc(/C=C2\C=Cc3ccccc32)cc1 |  |  | inactive
COC1(CC[C@H](C)COC2OC(CO)C(O)C(O)C2O)O[C@H]2C[C@H]3[C@@H]4CC=C5C[C@@H](OC6OC(CO)C(OC7OC(C)C(O)C(O)C7O)C(O)C6OC6OC(C)C(O)C(O)C6O)CC[C@]5(C)[C@H]4CC[C@]3(C)[C@H]2[C@@H]1C (stereo partly drawn) | < 3.70 | 5.80 | 
Cn1c2c(c3ccccc31)CC(=O)N1CCCCC1C21OCCO1 (stereo not drawn) | < 4.00 | < 4.00 | 
CC1=C(C(=O)Nc2ccccc2)C(c2ccc(C3C(C(=O)Nc4ccccc4)=C(C)NC(C)=C3C(=O)Nc3ccccc3)cc2)C(C(=O)Nc2ccccc2)=C(C)N1 | < 4.89 | 5.62 | 
CC(=O)OC1(C)C(=O)OC1(C)C(C)=O (stereo not drawn) |  |  | inactive
CC(C)(C)n1[nH]c(=O)n(C(C)(C)C)c1=O | < 3.70 | < 3.70 | 
O=C(N/N=C/c1ccccn1)c1ccccc1[O-].O=C(N/N=C/c1ccccn1)c1ccccc1[O-].[Co+2] | < 3.70 | 4.47 | 
Cc1c(/C=N/NC(=S)Nc2ccc([N+](=O)[O-])cc2)c(=O)n(-c2ccccc2)n1C | < 3.70 | 3.78 | 
O=C1c2c(O)ccc(O)c2C(=O)c2c(NCCOCCO)ccc(NCCOCCO)c21 | < 3.70 | 5.45 | 
O=C(NNC(c1ccccc1)C(F)(F)F)c1ccncc1 (stereo not drawn) | < 3.70 | < 3.70 | 
CCSc1ccc([N+](=O)[O-])c2c(SCC)c3ccccc3nc12 |  |  | inactive
Oc1c([Si](c2ccccc2)(c2ccccc2)c2ccccc2)cc2ccccc2c1-c1c(O)c([Si](c2ccccc2)(c2ccccc2)c2ccccc2)cc2ccccc12 | < 4.30 | < 4.30 | 
OC1c2ccccc2C(O)c2c1ccc1c2CN(Cc2ccccc2)CC1 (stereo not drawn) | < 4.14 | 4.90 | 
CCOC(=O)N1N=C(/C(C)=N/OC)C(C)S1=O (stereo not drawn) | < 3.70 | 3.83 | 
